The source of these data is ChEMBL document CHEMBL3507680, “University of Dundee, Gates Library screen for HepG2 cell viability”.

This series in a line: Human HepG2 cell viability assay in 384 well format. Set-up: dose 125 nL, time 70.5 hour; cytotoxicity at 70.5 h: concentration not given beside the values. Particulars: HepG2 cells, read-out: Inhibition. Type of series: toxicity, cell-based.
Consider `CCn1c(C)nnc1CN(C)C1CCN(Cc2sc(C)nc2C)C1` (centres undefined), for which the cytotoxicity at 70.5 h came to 3.85%. Turning to `COCCOC(=O)N1CCN2C[C@@H](CO)[C@H](c3ccccc3)[C@H]2C1`, the cytotoxicity at 70.5 h came to 0.912%. `O=C1CC[C@H]2[C@H](CCN2C(=O)C2CCCO2)N1Cc1ccncc1` (some centres undefined): the cytotoxicity at 70.5 h came out at 7.56%. As to `Cc1ccc(CN2CC3(CCN(C(=O)c4cscn4)C3)C2)o1`, the cytotoxicity at 70.5 h was -7.14%. The figure for `Cc1nc(CN2CCO[C@H]3CN(C(=O)c4ccncc4)C[C@H]32)cs1` is 6.5%; for `O=C(Cc1ccc(F)cc1)N1CCn2cc(Cn3cccn3)nc2C1` it is -1.99%; for `Cc1ccsc1CCNC(=O)C1(Oc2cccnc2C)CCNCC1` it is -10.2%. Turning to `CCn1ncc2c1C(COCC1CC1)N(Cc1c(C)noc1C)CC2` (centres undefined), the cytotoxicity at 70.5 h stood at 0.596%. On to `CCN(CC)C(=O)[C@@H]1C[C@H](n2cc(-c3cccc(OC)c3)nn2)CN1`, for which the cytotoxicity at 70.5 h was -3.79%. For the compound `CC(C)OCCCNC(=O)CS(=O)(=O)Cc1ccc(Cl)cc1`, the cytotoxicity at 70.5 h turned out to be 13%.

For `COc1ncnc2c1CCN(CC1CCOC1)CC2` (centres undefined), the cytotoxicity at 70.5 h was -13.6%. On to `CSCC(=O)N1CCc2c(cnc(C)c2-c2noc(-c3ccco3)n2)C1`, for which the cytotoxicity at 70.5 h was -17%. `CC1N(CC2CC2)C(=O)COC12CCN(Cc1nccs1)CC2` (centres undefined): the cytotoxicity at 70.5 h is -8.15%. `COC(=O)c1cnc(C(=O)N(c2ccc(OC)c(F)c2)C(C)C)cn1`: the cytotoxicity at 70.5 h amounted to 0.246%. The figure for `Cc1nnc2n1CCN(C(=O)c1cc(Cl)c(Br)[nH]1)C2` is -2.93%; for `CC(Cn1cccn1)NC(=O)Nc1nccs1` (centres undefined) it is -21.9%; for `CS(=O)(=O)NCc1cnc2n1CCN(Cc1ccccn1)CC2` it is -1.27%. In the case of `CN(c1ccncn1)C1CC2(CCN(C(=O)Cc3cccs3)C2)C1` (centres undefined), the cytotoxicity at 70.5 h is -6.91%. Regarding `Cc1ccc2nc(C)c(C)c(C(=O)N3CCC4(CCO4)CC3)c2c1`, the cytotoxicity at 70.5 h was -5.61%. `Cn1cc(CC2CCN(C(=O)NCc3csc(C4CC4)n3)C2)cn1` (centres undefined): the cytotoxicity at 70.5 h amounted to 0.703%. On to `O=C1OCCN1CCS(=O)(=O)c1cccc(Cl)c1`, for which the cytotoxicity at 70.5 h was -5.19%. Turning to `COc1ccc(OCC(=O)NS(=O)(=O)c2cc(F)ccc2F)cc1`, the cytotoxicity at 70.5 h worked out at 20.8%. Next, `Cc1nccn1-c1ccccc1CNC(=O)c1cn(CCN)nn1`: 1.29%; `CCOCCC(=O)Nc1ccnn1-c1ccc(Cl)cc1`: -3.17%. On to `CN(C)Cc1n[nH]c2c1CCN(Cc1cccs1)C2`, for which the cytotoxicity at 70.5 h is -4.47%.

With `CNC(=O)CN1CC[C@H]2CN(C(=O)c3ccoc3)C[C@H]2C1`, the cytotoxicity at 70.5 h was -4.77%. Take `Cc1nc(N)c2ccc(C3CCCN3)nc2n1` (centres undefined): the cytotoxicity at 70.5 h is -9.62%.

`CC(CNC(=O)N1CCS(=O)(=O)CC1)Cc1cccs1` (centres undefined): the cytotoxicity at 70.5 h was -1.72%. Turning to `CS(=O)(=O)Cc1nc(C2CC2)nn1-c1ccccn1`, the cytotoxicity at 70.5 h is 4.03%. The figure for `Cc1[nH]c(C2(N)CCCCC2)nc(=O)c1C` is -4.13%; for `Cc1ccc(-c2ncc(C(=O)NCCNc3ncccn3)s2)c(C)c1` it is 3.03%. For `CCn1ccnc1CN1CCN(CC(O)c2cccc(F)c2)CC1` (centres undefined), the cytotoxicity at 70.5 h was -5.97%.

For the compound `Cc1nc(C)n(CC2CCCN2Cc2nc(N)c3ccccc3n2)n1` (centres undefined), the cytotoxicity at 70.5 h is -4.33%. The figure for `CC1CCN(CC(O)CNc2ccc(Cl)cn2)CC1` (centres undefined) is -1.66%; for `CO[C@@H]1CCN(c2ncc(F)cn2)[C@@H]2CN(Cc3cccnc3)C[C@@H]21` it is -0.732%; for `c1c(CN2CCCC2)nc2n1CCNC2` it is 9.22%. On to `O=C(c1cccc(F)c1F)N1CCn2c(nnc2C(F)(F)F)C1`, for which the cytotoxicity at 70.5 h is -4.83%. On to `NC(=O)C1CN(C(=O)Nc2cc(Cl)cc(Cl)c2)CCO1` (centres undefined), for which the cytotoxicity at 70.5 h is -3.67%. `CSC(C)C(=O)NCc1ccc(-n2cncn2)nc1` (centres undefined): the cytotoxicity at 70.5 h was -10.2%.

For `CCc1ncnc2c1CCN(C(=O)c1ccccn1)CC2`, the cytotoxicity at 70.5 h was -24.1%. On to `CN1CCC(NC(=O)Cc2csc(C(C)(C)C)n2)CC1`, for which the cytotoxicity at 70.5 h is -10.5%. In the case of `CCc1ccc(CCNc2ncnc3c2CCN(C(=O)C2CC2)C3)cc1`, the cytotoxicity at 70.5 h came to 7.48%. For `CCN(CC)C(=O)CN1CCC(c2nc(C)c3c(n2)N(C)CCC3)CC1`, the cytotoxicity at 70.5 h is 17.6%.

For `Cn1nccc1CNS(=O)(=O)c1cc(F)ccc1Br`, the cytotoxicity at 70.5 h is -6.89%. As to `COc1ccc(F)c(CN2CCCC(O)(CNCc3ccon3)C2=O)c1` (centres undefined), the cytotoxicity at 70.5 h is 8.61%. Next, `O=C1CCc2cc(S(=O)(=O)NC(=O)c3ccc4c(c3)COC4)ccc2N1`: -12.1%; `Cc1ccc(S(=O)(=O)NC(=O)CCC(F)(F)F)cc1N(C)C`: -1.96%; `Cn1nnc2c1C(COCc1ccccn1)CN(C(=O)c1ccsc1)C2` (centres undefined): -6.33%. With `Cc1ccc(CN2CCn3c(CN(C)C(C)C)cnc3C2)s1`, the cytotoxicity at 70.5 h was -6.07%.

Regarding `Cc1ccc(CN2CCc3ncnc(-c4ccncc4)c3CC2)o1`, the cytotoxicity at 70.5 h is -7.23%. Turning to `CS(=O)(=O)NC[C@H]1OC[C@H]2CN(Cc3ccsc3)CC[C@H]21`, the cytotoxicity at 70.5 h is 2.09%. As to `O=C(CN1CCC(c2ccnn2CCO)CC1)NCc1cccs1`, the cytotoxicity at 70.5 h was determined as 18.4%.

For `CCC(C)NC(=O)CCc1ccc(OCC(F)(F)F)c(OC)c1` (centres undefined), the cytotoxicity at 70.5 h was -14.7%. As to `Cc1ccsc1[C@@H]1CCN(C(=O)CCC(=O)N2CCCCCC2)C[C@H]1O`, the cytotoxicity at 70.5 h turned out to be 0.789%. With `Cc1ccccc1CN(CCN(C)C)C(=O)c1ccc2nccn2c1`, the cytotoxicity at 70.5 h is 0.498%. As for `C1CN(CC2CCOCC2)Cc2c(COCC3CC3)nnn2C1`, the cytotoxicity at 70.5 h was -7.76%. As for `O=C([C@H]1CC[C@@H]2[C@@H](CCN2Cc2nccs2)O1)N1CCCCO1`, the cytotoxicity at 70.5 h is -5.06%. Take `NC(=O)C1CCCN(C(=O)c2ccn(-c3ccc(F)cc3)n2)C1` (centres undefined): the cytotoxicity at 70.5 h is -5.61%. Take `CC(OCC1CC1)C(=O)NCCC(=O)Nc1ccccn1` (centres undefined): the cytotoxicity at 70.5 h is -7.55%. For `CCOc1ccc(OCc2nccc(-c3cc(C(=O)O)ccn3)n2)cc1`, the cytotoxicity at 70.5 h is 16%. On to `CCc1c(C(=O)N2CC(C)OC(C)(C)C2)cnn1-c1ccccn1` (centres undefined), for which the cytotoxicity at 70.5 h is -4.53%. On to `CC(C)(C)C(NC(=O)CCCS(C)(=O)=O)c1ccc(F)cc1F` (centres undefined), for which the cytotoxicity at 70.5 h was -0.26%. For `CCCN(CC)c1cc(C2CCNCC2)nc(C)n1`, the cytotoxicity at 70.5 h was 26.5%. On to `COc1ccc(S(=O)(=O)NC(=O)COC2CCCC2)cc1`, for which the cytotoxicity at 70.5 h was -5.57%. With `CC(C)(C)C(=O)NS(=O)(=O)c1ccc(F)cc1C(F)(F)F`, the cytotoxicity at 70.5 h was -3.41%. In the case of `Cc1ccc(CNC2(Cc3cc(CO)on3)COC2)o1`, the cytotoxicity at 70.5 h is -1.63%.

As for `CC(Cc1cccc(Cl)c1)NC(=O)Nc1cnn(CC(N)=O)c1` (centres undefined), the cytotoxicity at 70.5 h was -1.82%. As for `Nc1ccc(C(=O)N2CCC(Oc3cccc(C(F)(F)F)c3)CC2)cn1`, the cytotoxicity at 70.5 h was -0.861%.

`O=C(c1ccno1)N1CCC2(CC1)C(=O)Nc1ccccc12`: the cytotoxicity at 70.5 h was -6.37%. Regarding `CC1CCc2n[nH]c(C(=O)NCCCc3ccco3)c2C1` (centres undefined), the cytotoxicity at 70.5 h was -2.37%.

Turning to `COc1cccc(C(=O)NS(=O)(=O)c2cncc(Br)c2)c1OC`, the cytotoxicity at 70.5 h is -12.4%. As for `Cc1n[nH]c(C2CN(CC(=O)NCCc3ccccc3)CCO2)n1` (centres undefined), the cytotoxicity at 70.5 h stood at 9%. The figure for `CCC(=O)Nc1cccc(OCC(=O)N2CC=CC2C(C)C)c1` (centres undefined) is -22.1%. As to `CC(C)n1cc(C(=O)NC2CN3CCC2CC3)c2ccccc21` (centres undefined), the cytotoxicity at 70.5 h is -20.2%. Consider `Cc1nccn1CCN(C)c1nc(-c2cccnc2)nc2c1CCNC2`, for which the cytotoxicity at 70.5 h was -3.49%.

In the case of `COc1ccc(C(=O)N2CCCC(n3cncn3)C2)nn1` (centres undefined), the cytotoxicity at 70.5 h turned out to be 10.5%.

Turning to `Cc1nnc(NCc2ccc(Cl)cc2)o1`, the cytotoxicity at 70.5 h is -6.23%. As to `Cc1nc(O)c2nnn(C[C@H]3CCCN3C(=O)c3cccs3)c2n1`, the cytotoxicity at 70.5 h is -7.34%. Consider `CCS(=O)(=O)N1C[C@H]2CN(Cc3ccc(OC)cc3)C(=O)[C@H]2C1`, for which the cytotoxicity at 70.5 h is -10.9%. As for `CCc1c(C)sc2c1c(N)nc(=O)n2CCN(C)C`, the cytotoxicity at 70.5 h was determined as 18.9%. Consider `COCCn1ccc(NC(=O)Nc2cccc(C#N)c2)n1`, for which the cytotoxicity at 70.5 h was -9.39%.

For the compound `Cc1cnc(NCCCN2CCc3ccccc32)nc1`, the cytotoxicity at 70.5 h is -3.85%. The figure for `O=C(CCc1nc2cc(Br)cnc2[nH]1)NCCCN1CCOCC1` is -17.4%; for `Cc1nnc2n1CCN(C(=O)C(C)Oc1ccc(C#N)cc1)C2` (centres undefined) it is -12.4%. Next, `Cc1cc(NC(=O)NC2CCN(C(C)C)CC2)c2ncccc2c1`: -85.3%; `CCC(=O)NCCc1cc2nc(-c3ccncc3)ccn2n1`: -5.77%. `Cc1nc(CNC(=O)c2ccc3c(c2)nc(N2CCOCC2)n3C)cs1`: the cytotoxicity at 70.5 h was -5.03%. Next, `O=C(c1ccc(F)cc1Cl)N1CCn2c(nnc2C(F)(F)F)C1`: 1.4%.

For the compound `CC(C)CN1Cc2nc(N3CCCC3)ncc2C1=O`, the cytotoxicity at 70.5 h is 19.8%. With `COCCOC(=O)N1CCn2nc(CN(C)Cc3nccs3)cc2C1`, the cytotoxicity at 70.5 h came out at 13.8%. The figure for `COc1cccc([C@@H]2CCN(Cc3[nH]nc(C)c3Cl)C[C@H]2O)c1` is -22.1%; for `C=Cn1ncc(CN2CCc3nc(-c4ccncc4)nc(O)c3C2)c1C` it is -4.39%; for `CCOCC1CN(S(=O)(=O)CC)Cc2cnn(CC3CC3)c21` (centres undefined) it is 6.24%. Next, `Cn1cc(CN2CCc3nc(-c4ccccn4)nc(O)c3C2)cn1`: 22.4%; `Cc1cnn(CCNCc2cccc(C#N)c2)c1`: 4.17%; `O=C(NCCNc1ncccn1)N(Cc1ccc(F)cc1F)C1CC1`: -18.1%. The figure for `Cc1csc2c(N3CCNC(C(=O)Nc4ccc(F)cc4)C3)ncnc12` (centres undefined) is -9.29%; for `O=C1COC2(CCN(Cc3ccco3)CC2)CN1Cc1cccnc1` it is -7.11%; for `CCc1noc(CN2CCCN(Cc3cccs3)CC2)n1` it is -11.1%.
